Data on 3 compounds can be found in US11351151B2, “Compound having anticancer activity and preparation method and application” (3D Medicines (Beijing) Co., Ltd., priority 2016, dated 2022).

What all share (assay): Cell proliferation assay (Alamar Blue)
What all share (assay type): cell-based

One assay relates to AN3CA. The conditions noted are these: Homo sapiens, AN3-CA, 144 h; AN3CA (endometrial cells); 6 days. How it is done: (§1) 1. Instruments and Materials • Thermo 311 CO2 incubator; Haier biosafety cabinet; Molecular Devices microplate reader; Xiangyi brand L530 desktop low speed centrifuge; Olympus IX51 inverted fluorescence microscope, DMEM, RPMI 1640, MEM, DMEM/F12 1:1 medium, Fetal bovine serum, 0.25% trypsin solution, phosphate buffer (Thermo Fisher Shanghai Co., Ltd.); sigma dimethyl sulfoxide (DMSO), resazurin; 54 commercial tumor cell lines (including 26 liver cancer cell lines). Experimental drugs: compounds 1-12 and active drug Linifanib; chemotherapeutic drug Doxorubicin (HY-15142; Shanghai Qianyuan Biomedical Technology Co., Ltd.).
(§2) 2. Experimental Methods • 2.1 Cultivation of different cell lines • 54 cell lines were cultured in a culture medium containing fetal bovine serum and placed in a 5% CO 2 incubator at 37° C. for incubation. The cells were all grown in an adherent state, and the growth was observed under an inverted microscope, and subculture was performed when the cell confluence rate reached 80%-90%. The proportion and quantity of passage were determined by experimental needs. The ratio of subculture of this cell line was generally 1:2^˜1:3. • 2.2 inhibition effect on the proliferation of different tumor cell lines • Cell test: 54 cell lines in logarithmic growth phase were inoculated in 96-well culture plates at 500^˜1×10^4/well (the optimal seeding density of each cell line was determined in pre-experiment), After incubating at 37° C. for 4 h in a 5% CO2 humidification incubator, added 10 μL of compounds 1-12 or Linifanib to each well, and tested 9 drug concentration gradients for each compound (diluted from the highest concentration of the test by 3.16 times). The solubility of each compound was different at a starting concentration of 30 or 100 μM, respectively. The QC reference compound Doxorubicin was added simultaneously to each cell line test, and the final drug concentrations were 10, 3.16, 1, 0.31, 0.1, 0.03, 0.01, 0.003, and 0.001 μM, respectively. In addition, a positive control group (100% inhibition) and a negative control group (0% inhibition) were set at the same time. The drug group was repeated for 2 wells per concentration, and the positive control group and the negative control group were repeated for 6 wells. After the culture was continued for 6 days in the incubator, AlamarBlue test operation was followed; • AlamarBlue test procedure: Incubated with 10 μL of AlamarBlue reagent per well for 1-4 h, shook for 1-2 min, MD microplate reader EX: 560 nm, EM: 590 nm wavelength to measure fluorescence, recorded the results, calculated the cell inhibition rate of the compound of the invention. Cell inhibition rate (%)=(A0% inhibition−A administration)/(A0% inhibition−A100% inhibition)×100%, and then using the method of nonlinear regression using Graph Pad Prism 5.0 or MATILAB software (usually using four parameters) to graph and obtain a drug dose response curve to obtain an IC50 value of the compound of the present invention acting on a cancer cell line.

The next assay relates to CCRF-CEM. The conditions noted are these: Homo sapiens, 144 h; CCRF-CEM tumor cell line; 6 days. How it is done:
as §1, §2

In another assay the test system is DLD1. The conditions noted are these: Homo sapiens, DLD-1, 144 h; DLD1 tumor cell line; 6 days. On the procedure:
as §1, §2

The next assay concerns DU145. The conditions noted are these: Homo sapiens, DU-145, 144 h; DU145 tumor cell line; 6 days. How it is done: as §1, §2
In a further assay the test system is HLE. The conditions noted are these: Homo sapiens, 144 h; HLE liver cancer cell line; 6 days. How it is done:
as §1, §2

A further assay has as its system HUH7. The conditions noted are these: Homo sapiens, Huh-7, 144 h; HUH7 liver cancer cell line; 6 days. How it is done: as §1, §2
Another assay relates to Hep3B2.1-7. The conditions noted are these: 144 h; Hep3B2.1-7 liver cancer cell line; 6 days. How it is done:
as §1, §2

Another assay deals with JHH5. The conditions noted are these: 144 h; JHH5 liver cancer cell line; 6 days. On the procedure:
as §1, §2

In another assay the test system is JHH7. The conditions noted are these: 144 h; JHH7 liver cancer cell line; 6 days. How it is done: as §1, §2
For the next assay, the system named is K562. The conditions noted are these: Homo sapiens, 144 h; K562 tumor cell line; 6 days. How it is done:
as §1, §2

Another assay relates to LC-2-ad. The conditions noted are these: Homo sapiens, 144 h; LC-2-ad tumor cell line; 6 days. On the procedure: as §1, §2
The subject of the next assay is MDA-MB-231. The conditions noted are these: Homo sapiens, 144 h; MDA-MB-231 tumor cell line; 6 days. How it is done:
as §1, §2

The next assay deals with MDA-MB-435S. The conditions noted are these: Homo sapiens, 144 h; MDA-MB-435S tumor cell line; 6 days. On the procedure:
as §1, §2

For a further assay, the system named is MFM-223. The conditions noted are these: Homo sapiens, 144 h; MFM-223 tumor cell line; 6 days. How it is done:
as §1, §2

For another assay, the system named is MG63. The conditions noted are these: Homo sapiens, MG-63, 144 h; MG63 tumor cell line; 6 days. How it is done: as §1, §2
The test system of the next assay is NCl-H1648. The conditions noted are these: 144 h; NCl-H1648 tumor cell line; 6 days. How it is done:
as §1, §2

The subject of another assay is NCl-H2170. The conditions noted are these: 144 h; NCl-H2170 tumor cell line; 6 days. On the procedure:
as §1, §2

The next assay relates to SNU354. The conditions noted are these: Homo sapiens, SNU-354, 144 h; SNU354 liver cancer cell line; 6 days. How it is done:
as §1, §2

Another assay deals with SNU423. The conditions noted are these: Homo sapiens, SNU-423, 144 h; SNU423 liver cancer cell line; 6 days. On the procedure: as §1, §2
The next assay has as its system SNU886. The conditions noted are these: SNU-886, 144 h; SNU886 liver cancer cell line; 6 days. How it is done: as §1, §2
The test system of another assay is SW620. The conditions noted are these: Homo sapiens, SW-620, 144 h; SW620 tumor cell line; 6 days. How it is done: as §1, §2
The subject of a further assay is T.T. The conditions noted are these: Homo sapiens, TT, 144 h; T.T tumor cell line; 6 days. How it is done: as §1, §2
Another assay deals with TE-6. The conditions noted are these: Homo sapiens, 144 h; TE-6 tumor cell line; 6 days. On the procedure:
as §1, §2

On to `Cc1ccc(F)c(NC(=O)Nc2ccc(-c3cccc4c3c(N)nn4C(=O)CCCCCCCCCCCNC(=O)C[C@H](N)C(=O)N[C@@H](CCC(=O)O)C(=O)O)cc2)c1` [Compound 7], for which the half-inhibitory concentration (IC50) in the assay with AN3CA was 2.94 µM; with CCRF-CEM, 15 µM; in the assay on DLD1, 97 µM; in the assay on DU145 it was 17.2 µM; in the assay on HLE it was 36.3 µM; in the assay with HUH7, 22.1 µM. Further, the IC50 was 13 µM in the assay with Hep3B2.1-7; above 100 µM with JHH5; 9.98 µM with JHH7; 23.9 µM in the assay with K562; 54.3 µM with LC-2-ad; 32.1 µM in the assay with MDA-MB-231. Also, the 50% inhibitory concentration (IC50) in the assay on MDA-MB-435S is above 100 µM; in the assay on MFM-223, 24.1 µM; in the assay on MG63 it was 73 µM; with NCl-H1648, above 100 µM; in the assay on NCl-H2170, 22.5 µM; in the assay with SNU354, 30.2 µM. The half-maximal inhibitory concentration (IC50) is above 100 µM in the assay with SNU423; 22 µM with SNU886; 21.9 µM in the assay with SW620; above 100 µM in the assay on T.T; 74.3 µM in the assay on TE-6.
As to `Cc1ccc(F)c(NC(=O)Nc2ccc(-c3cccc4c3c(N)nn4C(=O)CCCCCCCCCCCNC(=O)C[C@H](N)C(=O)O)cc2)c1` [Compound 12], the IC50 in the assay with AN3CA was 2.08 µM; in the assay with CCRF-CEM, above 30 µM; in the assay with DLD1, above 30 µM; in the assay with DU145 it was above 30 µM; with HLE it was above 30 µM; in the assay with HUH7 it was above 30 µM. Further, the IC50 in the assay with Hep3B2.1-7, with JHH5, with JHH7, in the assay on K562, in the assay with LC-2-ad and in the assay with MDA-MB-231 was above 30 µM throughout. Also, the concentration for half-maximal inhibition (IC50) with MDA-MB-435S, in the assay on MFM-223, with MG63, with NCl-H1648, with NCl-H2170 and with SNU354 was above 30 µM each time. Also, the IC50 with SNU423 was 10.9 µM; in the assay with SNU886 it was above 30 µM; in the assay on SW620, above 30 µM; in the assay on T.T it was above 30 µM; in the assay on TE-6 it was above 30 µM.
Take `Cc1ccc(F)c(NC(=O)Nc2ccc(-c3cccc4c3c(N)nn4C(=O)C[C@H](N)C(=O)N[C@@H](CCC(=O)N[C@@H](CCC(=O)N[C@@H](CCC(=O)N[C@@H](CCC(=O)O)C(=O)O)C(=O)O)C(=O)O)C(=O)O)cc2)c1` [Compound 2]: the half-maximal inhibitory concentration (IC50) in the assay on AN3CA worked out at 0.45 µM; with CCRF-CEM it was 6.33 µM; in the assay with DLD1, 14 µM; in the assay with DU145 it was 4.89 µM; in the assay on HLE, 2.69 µM; in the assay on HUH7 it was 4.32 µM. The half-maximal inhibitory concentration (IC50) with Hep3B2.1-7 is 3.43 µM; with JHH5, 21.3 µM; with JHH7, 2.84 µM; in the assay with K562 it was 7.13 µM; in the assay with LC-2-ad, 13.5 µM; with MDA-MB-231, 5.02 µM. In addition, the half-inhibitory concentration (IC50) in the assay with MDA-MB-435S was determined as 30 µM; in the assay on MFM-223 it was 10.3 µM; with MG63 it was 15.8 µM; with NCl-H1648, 8.91 µM; in the assay on NCl-H2170 it was 3.46 µM; in the assay with SNU354 it was 7.01 µM. Also, the IC50 with SNU423 stood at 14.4 µM; in the assay on SNU886, 3.75 µM; with SW620 it was 4.67 µM; in the assay with T.T, 8.29 µM; in the assay with TE-6 it was 7.03 µM.
